Laboratory results: patent publication US8338565B2, “Macrocyclic compounds for inhibition of tumor necrosis factor alpha” (Ensemble Therapeutics Corporation, priority 2008, dated 2012)
Like-named read-outs stand apart in the source and are kept apart here. Numbered stars: 1 amine (or outer) side, 2 acyl side, 3 side chain; on linkers, the order of the positions; unused ones are H or OH. Bridge positions count the residues as written; N and C are the ends. Square brackets hold non-standard residues; d marks the D form. Peptide text beside a SMILES is read from it. Phe(4-(4-pyridyl)) = N[C@@H](Cc1ccc(-c2ccncc2)cc1)C(=O)O; Phe(4-CF3) = N[C@@H](Cc1ccc(C(F)(F)F)cc1)C(=O)O; Bip = N[C@@H](Cc1ccc(-c2ccccc2)cc1)C(=O)O; dBip = N[C@H](Cc1ccc(-c2ccccc2)cc1)C(=O)O; dPhe(4-NH2) = Nc1ccc(C[C@@H](N)C(=O)O)cc1; Phe(4-NH2) = Nc1ccc(C[C@H](N)C(=O)O)cc1; d(hPhe) = N[C@H](CCc1ccccc1)C(=O)O; 2Thi = N[C@@H](Cc1cccs1)C(=O)O; d2Thi = N[C@H](Cc1cccs1)C(=O)O; Suc = O=C(CCC(=O)[*:2])[*:1]

Experiments:
rat paw edema model = assay: Rat paw edema model (carrageenan), anti-inflammatory activity; assay type: in vivo, Sprague-Dawley (SD) rats
Experimental: Compounds 3, 4, 10 and 202 were tested in a rat paw edema model to determine anti-inflammatory activity. Seven groups (one for Vehicle A [15 mL PEG400, 3 mL Graves Grain alcohol (190 proof), 1.8 mL dimethylacetamide and 10.2 mL deionized water] alone as a negative control, one for Vehicle B [0.1M NaHCO3] alone as a negative control, one for each of the four test compounds dissolved in Vehicle A, and one for indomethacin dissolved in Vehicle B as a positive control), each group containing six Sprague-Dawley (SD) rats (180-200 g) randomized by weight. Initial paw volumes were measured by placing the right hind limb of the rat up to the top of the hock in a beaker of water sitting on a scale that had been tared to zero and recording the readout.
Rats were pre-treated with either i) one of the test compounds, or ii) a positive or negative control. Vehicle A alone and test compound dissolved in Vehicle A (Compound 3-1.0 mg/kg; Compound 4-0.4 mg/kg; Compound 10-0.5 mg/kg; Compound 202-0.3 mg/kg) were administered by intravenous injection. Vehicle B alone and indomethacin (5 mg/kg in 0.1M NaHCO3) was administered by intraperitoneal injection. Thirty minutes after this pretreatment, rats were anesthetized and injected with 0.1 mL of carrageenan (10 mg/mL in water) in the subplantar region of the right hind foot using a ½ inch 26 gauge needle attached to a 1 cc syringe.
At 2, 4 and 6 hours post-carrageenan injection, the right hind foot of each rat was measured for paw volume as described above.
We next investigated the effect of varying intravenous doses of Compound 202 (0.05, 0.10, 0.30, and 1.00 mg/kg) in the same model using the same protocol (6 rats per group). […] We also investigated the affect of oral dosing (10 mg/kg) of Compound 202 in the same model. For oral dosing, a 2.5 mg/mL suspension of Compound 202 was prepared in Vehicle A. Rats were orally administered 4 mL/kg of that suspension.

[1] = molecular target: T1, TNFα / TNFα receptor (TNFα R1/Fc) (Homo sapiens, UniProt P01375); assay: Inhibition of binding of TNFα to the TNFα receptor (plate ELISA competition); details: Table 2
T1 construct: purchased R&D Systems
Procedure, shortened: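 Plates were coated with TNFα at 15 nM. Test compound and 8.33 nM receptor-Fc (PBST, 2% DMSO) were first mixed in solution for 30 min at room temperature, then transferred to the plates for another 30 min. Competition was read by absorbance at 450 nm after HRP anti-human IgG Fc detection with TMB.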

[2] = test system: TNF-α (degradation of IkB in HeLa cells or A431 cells); assay: Human cell-based assay: inhibition of TNF-α induced degradation of IkB; details: for inhibition at 5 µM: read-out: Inhibition at Various Compound Concentrations, 5 μM; for inhibition at 10 µM: read-out: Inhibition at Various Compound Concentrations, 10 μM
[3] = read-out: Activity (IC50, inhibition of TNFα binding to TNFα R1/Fc)
[4] = Table 5, 1 mg/kg IV, 2 h post-carrageenan
[5] = Table 5, 1 mg/kg IV, 4 h post-carrageenan
[6] = Table 5, 1 mg/kg IV, 6 h post-carrageenan
[7] = Table 8, 1 mg/kg IV, 2 h post-carrageenan
[8] = Table 8, 1 mg/kg IV, 4 h post-carrageenan
[9] = Table 8, 1 mg/kg IV, 6 h post-carrageenan
[10] = 5 μM compound, HeLa or A431 cells
[11] = 10 μM compound, HeLa or A431 cells
[12] = Table 7, 1 mg/kg IV, 2 h post-carrageenan
[13] = Table 7, 1 mg/kg IV, 4 h post-carrageenan
[14] = Table 7, 1 mg/kg IV, 6 h post-carrageenan

T1 sequence (P01375 77-233 limits assumed, species assumed): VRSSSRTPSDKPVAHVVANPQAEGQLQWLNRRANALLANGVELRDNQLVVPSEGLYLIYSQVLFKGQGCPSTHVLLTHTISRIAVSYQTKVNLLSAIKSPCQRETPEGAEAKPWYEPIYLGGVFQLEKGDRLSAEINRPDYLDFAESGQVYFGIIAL

COc1ccc2c(c1)c(CC(=O)O)c(C)n2C(=O)c1ccc(Cl)cc1 [indomethacin, reference compound]
Change in Paw Volume (rat paw edema model; Table 3, positive control 5 mg/kg IP, 2 h post-carrageenan): 0.61 ± 0.10 mL
Change in Paw Volume (rat paw edema model; Table 3, positive control 5 mg/kg IP, 4 h post-carrageenan): 0.92 ± 0.12 mL
Change in Paw Volume (rat paw edema model; Table 3, positive control 5 mg/kg IP, 6 h post-carrageenan): 0.99 ± 0.10 mL
Change in Paw Volume (rat paw edema model; Table 4, positive control IP (5 mg/kg), 2 h post-carrageenan): 0.61 ± 0.08 mL
Change in Paw Volume (rat paw edema model; Table 4, positive control IP (5 mg/kg), 4 h post-carrageenan): 0.82 ± 0.05 mL
Change in Paw Volume (rat paw edema model; Table 4, positive control IP (5 mg/kg), 6 h post-carrageenan): 0.90 ± 0.11 mL
Change in Paw Volume (rat paw edema model; Table 5, positive control IP (5 mg/kg), 2 h post-carrageenan): 0.82 ± 0.08 mL
Change in Paw Volume (rat paw edema model; Table 5, positive control IP (5 mg/kg), 4 h post-carrageenan): 0.94 ± 0.10 mL
Change in Paw Volume (rat paw edema model; Table 5, positive control IP (5 mg/kg), 6 h post-carrageenan): 0.87 ± 0.11 mL
Change in Paw Volume (rat paw edema model; Table 6, positive control IP (5 mg/kg), 2 h post-carrageenan): 0.63 ± 0.08 mL
Change in Paw Volume (rat paw edema model; Table 6, positive control IP (5 mg/kg), 4 h post-carrageenan): 0.79 ± 0.17 mL
Change in Paw Volume (rat paw edema model; Table 6, positive control IP (5 mg/kg), 6 h post-carrageenan): 0.82 ± 0.21 mL
Change in Paw Volume (rat paw edema model; Table 7, positive control IP (5 mg/kg), 2 h post-carrageenan): 0.75 ± 0.14 mL
Change in Paw Volume (rat paw edema model; Table 7, positive control IP (5 mg/kg), 4 h post-carrageenan): 1.02 ± 0.09 mL
Change in Paw Volume (rat paw edema model; Table 7, positive control IP (5 mg/kg), 6 h post-carrageenan): 1.07 ± 0.08 mL
Change in Paw Volume (rat paw edema model; Table 8, positive control IP (5 mg/kg), 2 h post-carrageenan): 0.76 ± 0.13 mL
Change in Paw Volume (rat paw edema model; Table 8, positive control IP (5 mg/kg), 4 h post-carrageenan): 0.92 ± 0.09 mL
Change in Paw Volume (rat paw edema model; Table 8, positive control IP (5 mg/kg), 6 h post-carrageenan): 0.74 ± 0.08 mL
Change in Paw Volume (rat paw edema model; Table 9, positive control IP (5 mg/kg), 2 h post-carrageenan): 0.75 ± 0.14 mL
Change in Paw Volume (rat paw edema model; Table 9, positive control IP (5 mg/kg), 4 h post-carrageenan): 1.02 ± 0.09 mL
Change in Paw Volume (rat paw edema model; Table 9, positive control IP (5 mg/kg), 6 h post-carrageenan): 1.07 ± 0.08 mL
Change in Paw Volume (rat paw edema model; Table 10, positive control IP (5 mg/kg), 2 h post-carrageenan): 0.63 ± 0.08 mL
Change in Paw Volume (rat paw edema model; Table 10, positive control IP (5 mg/kg), 4 h post-carrageenan): 0.79 ± 0.17 mL
Change in Paw Volume (rat paw edema model; Table 10, positive control IP (5 mg/kg), 6 h post-carrageenan): 0.82 ± 0.21 mL

O=C1COc2ccc(cc2)C[C@@H](C(=O)O)NC(=O)[C@H](CCc2ccccc2)NC(=O)[C@@H](Cc2ccc(-c3ccccc3)cc2)NC(=O)[C@H](Cc2ccncc2)N1 [Compound 506]
IC50 [1, 3]: < 10 µM
Change in Paw Volume (rat paw edema model; [4]): 0.74 ± 0.18 mL
Change in Paw Volume (rat paw edema model; [5]): 1.05 ± 0.17 mL
Change in Paw Volume (rat paw edema model; [6]): 0.86 ± 0.15 mL

O=C1COc2ccc(cc2)C[C@@H](C(=O)O)NC(=O)[C@H](Cc2ccc(O)cc2)NC(=O)[C@H](Cc2ccc(-c3ccccc3)cc2)NC(=O)[C@H](Cc2cccs2)N1 [Compound 428]
IC50 [1, 3]: < 10 µM
Change in Paw Volume (rat paw edema model; [7]): 1.27 ± 0.15 mL
Change in Paw Volume (rat paw edema model; [8]): 1.43 ± 0.22 mL
Change in Paw Volume (rat paw edema model; [9]): 1.39 ± 0.22 mL
inhibition at 5 µM [2]: < 10%
inhibition at 10 µM [2]: < 10%

O=C1CCC(=O)N[C@H](Cc2cccs2)C(=O)N[C@@H](Cc2ccc(-c3ccccc3)cc2)C(=O)N[C@H](Cc2ccccc2)C(=O)N[C@H](C(=O)N[C@@H](Cc2ccccc2)C(=O)O)Cc2ccc(cc2)N1 [Compound 10] ([d2Thi][Bip][dF][Phe(4-NH2)]F-OH; linker N-4 via Suc)
IC50 [1, 3]: 10 to 30 µM
Change in Paw Volume (rat paw edema model; Table 3, 0.5 mg/kg IV, 2 h post-carrageenan): 0.54 ± 0.23 mL
Change in Paw Volume (rat paw edema model; Table 3, 0.5 mg/kg IV, 4 h post-carrageenan): 1.11 ± 0.31 mL
Change in Paw Volume (rat paw edema model; Table 3, 0.5 mg/kg IV, 6 h post-carrageenan): 1.23 ± 0.28 mL
inhibition at 25 µM ([2]; 25 μM compound, HeLa or A431 cells, read-out: Inhibition at Various Compound Concentrations, 25 μM): > 80%

O=C1CCC(=O)N[C@H](CCc2ccccc2)C(=O)N[C@@H](Cc2ccc(C(F)(F)F)cc2)C(=O)N[C@H](Cc2ccccc2)C(=O)N[C@@H](C(=O)O)Cc2ccc(cc2)N1 [Compound 3] ([d(hPhe)][Phe(4-CF3)][dF][dPhe(4-NH2)]-OH; linker N-4 via Suc)
IC50 [1, 3]: 10 to 30 µM
Change in Paw Volume (rat paw edema model; Table 3, 1.0 mg/kg IV, 2 h post-carrageenan): 0.69 ± 0.14 mL
Change in Paw Volume (rat paw edema model; Table 3, 1.0 mg/kg IV, 4 h post-carrageenan): 1.16 ± 0.32 mL
Change in Paw Volume (rat paw edema model; Table 3, 1.0 mg/kg IV, 6 h post-carrageenan): 1.22 ± 0.31 mL
inhibition at 5 µM [2, 10]: < 10%
inhibition at 10 µM [2, 11]: < 10%

O=C1COc2ccc(cc2)C[C@@H](C(=O)N[C@@H](Cc2ccccc2)C(=O)O)NC(=O)[C@@H](CCc2ccccc2)NC(=O)[C@H](Cc2ccc(-c3ccccc3)cc2)NC(=O)[C@@H](Cc2cccs2)N1 [Compound 156]
IC50 ([1]; Activity (IC50, inhibition of TNFα binding to TNFα R1/Fc)): < 10 µM
Change in Paw Volume (rat paw edema model; [12]): 1.49 ± 0.24 mL
Change in Paw Volume (rat paw edema model; [13]): 1.51 ± 0.12 mL
Change in Paw Volume (rat paw edema model; [14]): 1.81 ± 0.16 mL
inhibition at 5 µM [2]: 50 to 80%
inhibition at 10 µM [2]: > 80%

O=C(O)[C@@H]1Cc2ccc(cc2)NC(=O)[C@H](O)[C@@H](O)C(=O)N[C@@H](Cc2cccs2)C(=O)N[C@@H](Cc2ccc(-c3ccccc3)cc2)C(=O)N[C@@H](Cc2ccccc2)C(=O)N1 [Compound 273]
IC50 [1, 3]: > 100 µM
Change in Paw Volume (rat paw edema model; [12]): 1.13 ± 0.09 mL
Change in Paw Volume (rat paw edema model; [13]): 1.52 ± 0.12 mL
Change in Paw Volume (rat paw edema model; [14]): 1.59 ± 0.16 mL
inhibition at 5 µM [2, 10]: 10 to 50%
inhibition at 10 µM [2, 11]: < 10%

O=C1CCC(=O)N[C@H](CCc2ccccc2)C(=O)N[C@@H](Cc2ccc(-c3ccncc3)cc2)C(=O)N[C@H](Cc2ccccc2)C(=O)N[C@H](C(=O)N[C@@H](Cc2ccccc2)C(=O)O)Cc2ccc(cc2)N1 [Compound 426] ([d(hPhe)][Phe(4-(4-pyridyl))][dF][Phe(4-NH2)]F-OH; linker N-4 via Suc)
IC50 [1, 3]: < 10 µM
Change in Paw Volume (rat paw edema model; [4]): 0.90 ± 0.15 mL
Change in Paw Volume (rat paw edema model; [5]): 1.11 ± 0.18 mL
Change in Paw Volume (rat paw edema model; [6]): 1.11 ± 0.23 mL
inhibition at 5 µM [2, 10]: 10 to 50%
inhibition at 10 µM [2, 11]: 10 to 50%

O=C1CCC(=O)N[C@@H](Cc2cccs2)C(=O)N[C@H](Cc2ccc(-c3ccccc3)cc2)C(=O)N[C@@H](Cc2ccccc2)C(=O)N[C@@H](C(=O)O)Cc2ccc(cc2)N1 [Compound 500] ([2Thi][dBip]F[dPhe(4-NH2)]-OH; linker N-4 via Suc)
IC50 [1, 3]: 10 to 30 µM
Change in Paw Volume (rat paw edema model; [7]): 0.98 ± 0.24 mL
Change in Paw Volume (rat paw edema model; [8]): 1.07 ± 0.21 mL
Change in Paw Volume (rat paw edema model; [9]): 0.98 ± 0.14 mL

O=C1CCC(=O)N[C@@H](Cc2cccs2)C(=O)N[C@H](Cc2ccc(-c3ccccc3)cc2)C(=O)N[C@@H](Cc2ccccc2)C(=O)N[C@H](C(=O)O)Cc2ccc(cc2)N1 [Compound 493] ([2Thi][dBip]F[Phe(4-NH2)]-OH; linker N-4 via Suc)
IC50 [1, 3]: < 10 µM
Change in Paw Volume (rat paw edema model; [7]): 1.04 ± 0.15 mL
Change in Paw Volume (rat paw edema model; [8]): 1.12 ± 0.10 mL
Change in Paw Volume (rat paw edema model; [9]): 1.03 ± 0.15 mL
